Test results as given in US9510598B2, “Nitrogen-containing heterocyclic compounds for plant disease control” (BAYER CROPSCIENCE AG, priority 2012, dated 2016).
Read-outs that look alike come from different tables or passages of the source. Blank lines part the entries; values can stand above or below the compound they belong to.

Columns and labels:
[1] = assay type: physicochemical
Septoria tritici = test: In vivo preventive test on Septoria tritici (leaf spot on wheat); settings: 500 ppm; wheat plants sprayed 24 hours before contamination; grading 21 to 28 days after contamination vs control plants
Experimental: Wheat plants (“Scipion” variety), sown in starter cups on a 50/50 peat soil-pozzolana substrate and grown at 22° C. (12 h)/20° C. (12 h), are treated at the 1-leaf stage (10 cm height) by spraying with the active ingredient prepared as described above. Plants, used as controls, are treated with the mixture of acetone/tween/DMSO/water not containing the active material. After 24 hours, the plants are contaminated by spraying the leaves with an aqueous suspension of cryopreserved Septoria tritici spores (500 000 spores per ml). […] Grading (% of efficacy) is carried out 21 to 28 days after the contamination, in comparison with the control plants.

[2] = method [a]: HPLC/LC-MS on reversed phase at pH 2.7, 0.1% formic acid in water / acetonitrile, gradient 10% to 95% acetonitrile
[3] = HPLC on reversed phase columns, method [a]: pH 2.7, 0.1% formic acid in water / acetonitrile, linear gradient 10% to 95% acetonitrile
[4] = method [a]: HPLC/LC-MS on reversed phase at pH 2.7, 0.1% formic acid in water / acetonitrile, linear gradient 10% to 95% acetonitrile

Compound: COC1(C(=O)NC(C)C)CC(c2ccc3ncc(Br)cc3c2)=NO1 (single isomer, unassigned) [compound 285]
log P [1, 3]: 2.57[a] | % of efficacy (protection) (Septoria tritici): 100%

Compound: Cc1cc(NC(=O)C2(C)CC(c3cc4cc(Br)cnc4c(F)c3F)=NO2)n(C)n1 (centres unmarked) [compound 18]
Log P ([1]; method [a]: HPLC/LC-MS on reversed phase at pH 2.7, 0.1% formic acid in water and acetonitrile, linear gradient 10% to 95% acetonitrile): 2.6^[a] | % of efficacy (protection) (Septoria tritici): 93%

Compound: CCC(C)NC(=O)C1(C)CC(c2cc3cc(Br)cnc3c(OC)c2OC)=NO1 (centres unmarked) [compound 28]
log P [1, 4]: 3.21^[a] | % of efficacy (protection) (Septoria tritici): 100%

Compound: CCn1cc(CNC(=O)C2(C)CC(c3cc4cc(Br)cnc4c(F)c3OC)=NO2)c(C)n1 (centres unmarked) [compound 29]
log P [1, 4]: 2.47^[a] | % of efficacy (protection) (Septoria tritici): 100%

Compound: CCn1cc(CNC(=O)C2(C)CC(c3cc4cc(Br)cnc4c(OC)c3OC)=NO2)c(C)n1 (centres unmarked) [compound 30]
log P [1, 4]: 2.42^[a] | % of efficacy (protection) (Septoria tritici): 100%

Compound: CCn1cc(CNC(=O)C2(C)CC(c3ccc4ncc(Cl)cc4c3)=NO2)c(C)n1 (centres unmarked) [compound 54]
log P [1, 4]: 2.28^[a] | % of efficacy (protection) (Septoria tritici): 100%

Compound: CCn1cc(CNC(=O)C2(Cc3ccccc3)CC(c3ccc4ncc(Br)cc4c3)=NO2)c(C)n1 (centres unmarked) [compound 56]
log P [1, 4]: 3.23^[a] | % of efficacy (protection) (Septoria tritici): 70%

Compound: CCOCCCNC(=O)C1(Cc2ccccc2)CC(c2ccc3ncc(Br)cc3c2)=NO1 (centres unmarked) [compound 59]
log P [1, 4]: 3.8^[a] | % of efficacy (protection) (Septoria tritici): 70%

Compound: CCn1cc(CNC(=O)C2(C(C)C)CC(c3ccc4ncc(Br)cc4c3)=NO2)c(C)n1 (centres unmarked) [compound 61]
log P [1, 4]: 2.94^[a] | % of efficacy (protection) (Septoria tritici): 80%

Compound: CC(C)NC(=O)C1(CF)CC(c2ccc3ncc(Br)cc3c2)=NO1 (centres unmarked) [compound 76]
log P [1, 4]: 2.46^[a] | % of efficacy (protection) (Septoria tritici): 75%

Compound: C#Cc1cnc2ccc(C3=NOC(C)(C(=O)NCc4ccc(-c5csnn5)cc4)C3)cc2c1 (centres unmarked) [compound 86]
log P [1, 4]: 2.82^[a] | % of efficacy (protection) (Septoria tritici): 75%

Compound: CC1(C(=O)NCc2ccccc2)CC(c2ccc3ncc(Br)cc3c2)=NO1 (centres unmarked) [compound 91]
log P [1, 4]: 3.21^[a] | % of efficacy (protection) (Septoria tritici): 75%

Compound: CC1(C(=O)NCc2ccc(Cl)nc2)CC(c2ccc3ncc(Br)cc3c2)=NO1 (centres unmarked) [compound 104]
log P [1, 4]: 2.73^[a] | % of efficacy (protection) (Septoria tritici): 92%

Compound: Cn1ccc(NC(=O)C2(C(F)(F)F)CC(c3ccc4ncc(Br)cc4c3)=NO2)c1 (centres unmarked) [compound 108]
log P [1, 4]: 3.5^[a] | % of efficacy (protection) (Septoria tritici): 75%

Compound: C#Cc1cnc2ccc(C3=NOC(C)(C(=O)NCc4ccc5[nH]ccc5c4)C3)cc2c1 (centres unmarked) [compound 115]
log P [1, 4]: 2.63^[a] | % of efficacy (protection) (Septoria tritici): 75%

Compound: C#Cc1cnc2ccc(C3=NOC(C)(C(=O)NCC4CCC(C(F)(F)F)CC4)C3)cc2c1 (centres unmarked) [compound 121]
log P [1, 4]: 3.61^[a] | % of efficacy (protection) (Septoria tritici): 75%

Compound: C#Cc1cc2cc(C3=NOC(C)(C(=O)NC(C)C)C3)ccc2nc1OC (centres unmarked) [compound 133]
log P [1, 4]: 3.09^[a] | % of efficacy (protection) (Septoria tritici): 100%

Compound: C#Cc1cc2cc(C3=NOC(C)(C(=O)NC(C)C)C3)ccc2nc1Cl (centres unmarked) [compound 134]
log P [1, 4]: 3.08^[a] | % of efficacy (protection) (Septoria tritici): 71%

Compound: CCn1cc(CNC(=O)C2(CBr)CC(c3ccc4ncc(Br)cc4c3)=NO2)c(C)n1 (centres unmarked) [compound 137]
log P [1, 4]: 2.62^[a] | % of efficacy (protection) (Septoria tritici): 93%

Compound: CCn1cc(CNC(=O)C2(CCl)CC(c3ccc4ncc(Br)cc4c3)=NO2)c(C)n1 (centres unmarked) [compound 138]
log P [1, 4]: 2.56^[a] | % of efficacy (protection) (Septoria tritici): 93%

Compound: CC(C)NC(=O)C1(C)CC(c2ccc3ncccc3c2)=NO1 (centres unmarked) [compound 143]
log P [1, 4]: 1.44^[a] | % of efficacy (protection) (Septoria tritici): 71%

Compound: CCn1cc(CNC(=O)C2(C)CC(c3ccc4ncc(C#C[Si](C)(C)C)cc4c3)=NO2)c(C)n1 (centres unmarked) [compound 149]
log P [1, 4]: 3.79^[a] | % of efficacy (protection) (Septoria tritici): 93%

Compound: Cc1ccc(CNC(=O)C2(C)CC(c3ccc4ncc(Br)cc4c3)=NO2)n1C (centres unmarked) [compound 152]
log P [1, 4]: 3.21^[a] | % of efficacy (protection) (Septoria tritici): 71%

Compound: C#Cc1cnc2ccc(C3=NOC(C)(C(=O)NCc4ccc(C)n4C)C3)cc2c1 (centres unmarked) [compound 153]
log P [1, 4]: 2.88^[a] | % of efficacy (protection) (Septoria tritici): 71%

Compound: C#Cc1cnc2ccc(C3=NOC(C)(C(=O)NCc4ccc(Cl)nc4)C3)cc2c1 (centres unmarked) [compound 160]
log P [1, 4]: 2.44^[a] | % of efficacy (protection) (Septoria tritici): 71%

Compound: Cc1nn(C(C)C)c(C)c1CNC(=O)C1(C)CC(c2ccc3ncc(Br)cc3c2)=NO1 (centres unmarked) [compound 184]
log P [1, 4]: 2.6^[a] | % of efficacy (protection) (Septoria tritici): 71%

Compound: C#Cc1cnc2ccc(C3=NOC(C)(C(=O)NCc4cnn(-c5ccccc5)n4)C3)cc2c1 (centres unmarked) [compound 189]
log P [1, 4]: 3.11^[a] | % of efficacy (protection) (Septoria tritici): 71%

Compound: CC1(C(=O)NCc2cn[nH]c2-c2cccs2)CC(c2ccc3ncc(Br)cc3c2)=NO1 (centres unmarked) [compound 191]
log P [1, 4]: 2.51^[a] | % of efficacy (protection) (Septoria tritici): 71%

Compound: C#Cc1cnc2ccc(C3=NOC(C)(C(=O)NCc4cn[nH]c4-c4cccs4)C3)cc2c1 (centres unmarked) [compound 192]
log P [1, 4]: 2.25^[a] | % of efficacy (protection) (Septoria tritici): 71%

Compound: C#Cc1cnc2ccc(C3=NOC(C)(C(=O)NCC4CCC(=O)N4C)C3)cc2c1 (centres unmarked) [compound 213]
log P [1, 4]: 1.65^[a] | % of efficacy (protection) (Septoria tritici): 97%

Compound: C#Cc1cnc2ccc(C3=NOC(C)(C(=O)NCC4CCCOC4c4ccccc4)C3)cc2c1 (centres unmarked) [compound 222]
log P [1, 4]: 3.11^[a] | % of efficacy (protection) (Septoria tritici): 71%

Compound: C#Cc1cnc2ccc(C3=NOC(C)(C(=O)NCC4CCOc5ccccc54)C3)cc2c1 (centres unmarked) [compound 223]
log P [1, 4]: 3.11^[a] | % of efficacy (protection) (Septoria tritici): 71%

Compound: CC1(C(=O)NCc2ccc3ncsc3c2)CC(c2ccc3ncc(Br)cc3c2)=NO1 (centres unmarked) [compound 243]
log P [1, 3]: 2.7^[a] | % of efficacy (protection) (Septoria tritici): 71%

Compound: CCn1cc(CNC(=O)C2(F)CC(c3ccc4ncc(Br)cc4c3)=NO2)c(C)n1 (centres unmarked) [compound 279]
log P [1, 3]: 2.38[a] | % of efficacy (protection) (Septoria tritici): 75%

The next lines start with results.

log P [1, 2]: 2.64[a]
Compound: CC(C)NC(=O)C1ON=C(c2ccc3ncc(Br)cc3c2)C1C (racemic) [compound 376]
% of efficacy (protection) (Septoria tritici): 86%

log P [1, 2]: 2.35[a]
Compound: CC#Cc1cnc2ccc(C3=NOC(C)(C(=O)NCc4cn(CC)nc4C)C3)cc2c1 (racemic) [compound 378]
% of efficacy (protection) (Septoria tritici): 97%

log P [1, 2]: 2.44[a]
Compound: CC(C)ONC(=O)C1(C)CC(c2ccc3ncc(Br)cc3c2)=NO1 (racemic) [compound 388]
% of efficacy (protection) (Septoria tritici): 100%

log P [1, 2]: 2.17[a]
Compound: CCONC(=O)C1(C)CC(c2ccc3ncc(Br)cc3c2)=NO1 (racemic) [compound 389]
% of efficacy (protection) (Septoria tritici): 100%

log P [1, 2]: 3.29[a]
Compound: CC1(C(=O)NC2CCCC2)CC(c2ccc3ncc(Br)cc3c2)=NO1 (racemic) [compound 390]
% of efficacy (protection) (Septoria tritici): 98%

log P [1, 2]: 2.82[a]
Compound: CC(C)NC(=O)C12CC1C(c1ccc3ncc(Br)cc3c1)=NO2 (racemic) [compound 397]
% of efficacy (protection) (Septoria tritici): 75%

log P [1, 2]: 2.76[a]
Compound: C#Cc1cnc2ccc(C3=NOC(C)(C(=S)NCc4cnn(C)c4C)C3)cc2c1 (racemic) [compound 443]
% of efficacy (protection) (Septoria tritici): 88%

log P [1, 3]: 3.12[a]
Compound: CCn1cc(CNC(=O)C2(C)CC(c3ccc4nc(Cl)c(Br)cc4c3)=NO2)c(C)n1 (centres unmarked) [compound 286]
% of efficacy (protection) (Septoria tritici): 92%

log P [1, 3]: 3.46[a]
Compound: CC(C)NC(=O)C1(C)CC(c2ccc3nc(Cl)c(Br)cc3c2)=NO1 (centres unmarked) [compound 287]
% of efficacy (protection) (Septoria tritici): 83%

log P [1, 3]: 2.39[a]
Compound: COC(CNC(=O)C1(C)CC(c2ccc3ncc(Br)cc3c2)=NO1)OC (centres unmarked) [compound 290]
% of efficacy (protection) (Septoria tritici): 96%

log P [1, 3]: 3.46[a]
Compound: CC(NC(=O)C1(C)CC(c2ccc3ncc(Br)cc3c2)=NO1)c1ccccc1 (centres unmarked) [compound 292]
% of efficacy (protection) (Septoria tritici): 96%

log P [1, 3]: 3.85[a]
Compound: CC(NC(=O)C1(C)CC(c2ccc3ncc(Br)cc3c2)=NO1)c1ccccc1Cl (centres unmarked) [compound 294]
% of efficacy (protection) (Septoria tritici): 70%

log P [1, 3]: 3.35[a]
Compound: CC(NC(=O)C1(C)CC(c2ccc3ncc(Br)cc3c2)=NO1)c1ccsc1 (centres unmarked) [compound 295]
% of efficacy (protection) (Septoria tritici): 80%

log P [1, 3]: 2.20[a]
Compound: C=Cc1cnc2ccc(C3=NOC(C)(C(=O)NC(C)C)C3)cc2c1 (centres unmarked) [compound 304]
% of efficacy (protection) (Septoria tritici): 100%

log P [1, 3]: 2.27[a]
Compound: CC1(C(=O)NC2CCOCC2)CC(c2ccc3ncc(Br)cc3c2)=NO1 (centres unmarked) [compound 307]
% of efficacy (protection) (Septoria tritici): 100%

log P [1, 3]: 2.56[a]
Compound: CC(NC(=O)C1(C)CC(c2ccc3ncc(Br)cc3c2)=NO1)c1nccs1 (centres unmarked) [compound 310]
% of efficacy (protection) (Septoria tritici): 100%

log P [1, 3]: 2.77[a]
Compound: CCC(NC(=O)C1(C)CC(c2ccc3ncc(Br)cc3c2)=NO1)c1cn(CC)nc1C (centres unmarked) [compound 311]
% of efficacy (protection) (Septoria tritici): 100%

log P [1, 3]: 3.00[a]
Compound: C#Cc1cnc2ccc(C3=NOC(C)(C(=O)NC(C)(C)C)C3)cc2c1 (centres unmarked) [compound 322]
% of efficacy (protection) (Septoria tritici): 98%

log P [1, 3]: 2.94[a]
Compound: C#Cc1cnc2ccc(C3=NOC(C)(C(=O)NC(C)c4nc(C(C)C)no4)C3)cc2c1 (centres unmarked) [compound 329]
% of efficacy (protection) (Septoria tritici): 100%

log P [1, 3]: 2.78[a]
Compound: C#Cc1cnc2ccc(C3=NOC(C)(C(=O)NC(C)C4CC4)C3)cc2c1 (centres unmarked) [compound 330]
% of efficacy (protection) (Septoria tritici): 100%

log P [1, 3]: 3.23[a]
Compound: CC(C)c1noc(C(C)NC(=O)C2(C)CC(c3ccc4ncc(Br)cc4c3)=NO2)n1 (centres unmarked) [compound 331]
% of efficacy (protection) (Septoria tritici): 83%
